Laboratory results from patent publication US8513221B2, “PI3K isoform selective inhibitors” (Xcovery Holding, LLC, priority 2008, dated 2013).
Where two headings read alike, the source gives them in different places.

Assays:
[1] = target: T1, PI3Kα (Homo sapiens, UniProt P42336); assay: Ambit Biosciences kinase competition binding assay, PI3Kα; conditions: read-out: inhibitory activity against other isoforms: PI3Kα
T1 construct: purchased Ambit Biosciences (San Diego, Calif., USA); host or cells: T7 phage in BL21-derived E. coli, or HEK-293
Method: (§1) Assays were performed as described in Fabian et al. (2005) Nature Biotechnology, vol. 23, p. 329 and in Karaman et al. (2008) Nature Biotechnology, vol. 26, p. 127.
(§2) Kinase assays. For most assays, kinase-tagged T7 phage strains were grown in parallel in 24-well blocks in an E. coli host derived from the BL21 strain. E. coli were grown to log-phase and infected with T7 phage from a frozen stock (multiplicity of infection ˜0.1) and incubated with shaking at 32° C. until lysis (˜90 minutes). The lysates were centrifuged (6,000×g) and filtered ([…]) to remove cell debris. The remaining kinases were produced in HEK-293 cells and subsequently tagged with DNA for qPCR detection. Streptavidin-coated magnetic beads were treated with biotinylated small molecule ligands for 30 minutes at room temperature to generate affinity resins for kinase assays. The liganded beads were blocked with excess biotin and washed with blocking buffer (SeaBlock (Pierce), 1% BSA, 0.05% Tween 20, 1 mM DTT) to remove unbound ligand and to reduce non-specific phage binding. Binding reactions were assembled by combining kinases, liganded affinity beads, and test compounds in 1× binding buffer (20% SeaBlock, 0.17× PBS, 0.05% Tween 20, 6 mM DTT). Test compounds were prepared as 40× stocks in 100% DMSO and directly diluted into the assay. […] The kinase concentration in the eluates was measured by qPCR. […]

[2] = target: T2, PI3Kδ (Homo sapiens, UniProt O00329); assay: Ambit Biosciences kinase competition binding assay, PI3Kδ
T2 construct: purchased Ambit Biosciences (San Diego, Calif., USA); host or cells: T7 phage in BL21-derived E. coli, or HEK-293
T2 sequence (O00329 1-1044): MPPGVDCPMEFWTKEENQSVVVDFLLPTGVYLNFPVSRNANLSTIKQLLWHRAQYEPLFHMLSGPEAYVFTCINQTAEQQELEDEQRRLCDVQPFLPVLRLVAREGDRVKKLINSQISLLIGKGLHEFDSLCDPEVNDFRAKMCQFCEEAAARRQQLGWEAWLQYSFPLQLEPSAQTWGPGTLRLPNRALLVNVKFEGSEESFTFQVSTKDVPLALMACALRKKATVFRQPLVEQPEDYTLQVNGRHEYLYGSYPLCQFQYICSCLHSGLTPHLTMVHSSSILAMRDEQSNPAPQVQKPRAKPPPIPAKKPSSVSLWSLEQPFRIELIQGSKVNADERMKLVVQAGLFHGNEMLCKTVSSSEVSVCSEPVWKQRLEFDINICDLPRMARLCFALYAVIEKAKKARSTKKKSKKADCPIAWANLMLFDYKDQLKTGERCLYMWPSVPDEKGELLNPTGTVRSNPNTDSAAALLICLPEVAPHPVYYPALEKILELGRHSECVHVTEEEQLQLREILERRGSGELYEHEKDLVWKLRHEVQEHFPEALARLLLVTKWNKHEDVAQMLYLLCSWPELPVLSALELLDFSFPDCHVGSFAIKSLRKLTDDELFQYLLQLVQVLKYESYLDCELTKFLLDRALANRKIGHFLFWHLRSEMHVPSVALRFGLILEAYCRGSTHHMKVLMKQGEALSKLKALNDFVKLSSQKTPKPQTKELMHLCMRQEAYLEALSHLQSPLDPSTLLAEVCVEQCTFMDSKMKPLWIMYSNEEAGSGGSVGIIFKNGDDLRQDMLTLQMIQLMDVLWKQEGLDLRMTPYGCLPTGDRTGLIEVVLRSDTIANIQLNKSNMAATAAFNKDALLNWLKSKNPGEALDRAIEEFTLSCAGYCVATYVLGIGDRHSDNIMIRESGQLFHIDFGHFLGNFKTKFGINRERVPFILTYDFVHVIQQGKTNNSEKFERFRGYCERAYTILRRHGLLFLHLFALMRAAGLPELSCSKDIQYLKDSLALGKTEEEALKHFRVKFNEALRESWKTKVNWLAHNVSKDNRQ
Method: Kinase assays. For most assays, kinase-tagged T7 phage strains were grown in parallel in 24-well blocks in an E. coli host derived from the BL21 strain. E. coli were grown to log-phase and infected with T7 phage from a frozen stock (multiplicity of infection ˜0.1) and incubated with shaking at 32° C. until lysis (˜90 minutes). The lysates were centrifuged (6,000×g) and filtered ([…]) to remove cell debris. The remaining kinases were produced in HEK-293 cells and subsequently tagged with DNA for qPCR detection. […] The liganded beads were blocked with excess biotin and washed with blocking buffer (SeaBlock (Pierce), 1% BSA, 0.05% Tween 20, 1 mM DTT) to remove unbound ligand and to reduce non-specific phage binding. […] Test compounds were prepared as 40× stocks in 100% DMSO and directly diluted into the assay. All reactions were performed in polypropylene 384-well plates in a final volume of 0.04 ml. […] The kinase concentration in the eluates was measured by qPCR.
Compounds were tested using the above assay at Ambit Biosciences (San Diego, Calif., USA).

[3] = target: T3, PI3Kβ (Homo sapiens, UniProt P42338); assay: Ambit Biosciences kinase competition binding assay, PI3Kβ; conditions: read-out: inhibitory activity against other isoforms: PI3Kβ
T3 construct: purchased Ambit Biosciences (San Diego, Calif., USA); host or cells: T7 phage in BL21-derived E. coli, or HEK-293
Method: as §1, §2

[4] = target: T4, PI3Kγ (Homo sapiens, UniProt P48736); assay: Ambit Biosciences kinase competition binding assay, PI3Kγ; conditions: read-out: inhibitory activity against other isoforms: PI3Kγ
T4 construct: purchased Ambit Biosciences (San Diego, Calif., USA); host or cells: T7 phage in BL21-derived E. coli, or HEK-293
Method: as §1, §2

[5] = target: T5, mTor (Homo sapiens, UniProt P42345); assay: Z′-LYTE biochemical assay for mTor; conditions: at up to 1 μM
T5 construct: purchased Invitrogen Corp. (Madison, Wis., USA)
Method: The Z′-LYTE® biochemical assay for mTor The mTor kinase activity was assessed using the Z′-LYTE® biochemical assay of Invitrogen Corp. (Madison, Wis., USA).

T1 sequence (P42336 whole entry, canonical isoform): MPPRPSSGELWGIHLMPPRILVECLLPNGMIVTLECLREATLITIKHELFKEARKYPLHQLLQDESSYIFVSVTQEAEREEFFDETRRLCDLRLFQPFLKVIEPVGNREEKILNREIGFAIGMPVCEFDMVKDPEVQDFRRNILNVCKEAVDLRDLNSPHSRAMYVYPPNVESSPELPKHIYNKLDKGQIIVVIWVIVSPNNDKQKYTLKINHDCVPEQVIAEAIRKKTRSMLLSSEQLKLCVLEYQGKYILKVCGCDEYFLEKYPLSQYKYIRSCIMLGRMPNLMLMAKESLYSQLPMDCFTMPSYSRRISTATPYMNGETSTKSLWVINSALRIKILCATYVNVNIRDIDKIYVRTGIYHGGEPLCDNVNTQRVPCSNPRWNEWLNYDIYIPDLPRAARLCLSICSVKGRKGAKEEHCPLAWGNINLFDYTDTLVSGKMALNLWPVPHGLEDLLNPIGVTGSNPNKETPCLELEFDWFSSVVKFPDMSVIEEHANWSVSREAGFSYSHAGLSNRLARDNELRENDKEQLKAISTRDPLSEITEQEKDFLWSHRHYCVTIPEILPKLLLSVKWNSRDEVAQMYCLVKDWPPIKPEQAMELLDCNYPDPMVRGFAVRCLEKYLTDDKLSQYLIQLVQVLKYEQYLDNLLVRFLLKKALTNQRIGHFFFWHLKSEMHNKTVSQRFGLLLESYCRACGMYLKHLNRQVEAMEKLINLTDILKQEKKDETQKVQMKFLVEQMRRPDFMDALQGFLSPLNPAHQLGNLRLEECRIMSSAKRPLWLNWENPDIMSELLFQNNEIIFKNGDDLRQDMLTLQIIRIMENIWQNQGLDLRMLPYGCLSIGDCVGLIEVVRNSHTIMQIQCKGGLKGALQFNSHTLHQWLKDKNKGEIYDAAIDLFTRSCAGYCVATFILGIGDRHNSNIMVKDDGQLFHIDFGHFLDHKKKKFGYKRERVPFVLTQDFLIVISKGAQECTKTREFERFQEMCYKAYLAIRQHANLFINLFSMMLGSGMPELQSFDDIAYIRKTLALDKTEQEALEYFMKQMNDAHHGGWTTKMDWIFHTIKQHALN
T4 sequence (P48736 whole entry, canonical isoform): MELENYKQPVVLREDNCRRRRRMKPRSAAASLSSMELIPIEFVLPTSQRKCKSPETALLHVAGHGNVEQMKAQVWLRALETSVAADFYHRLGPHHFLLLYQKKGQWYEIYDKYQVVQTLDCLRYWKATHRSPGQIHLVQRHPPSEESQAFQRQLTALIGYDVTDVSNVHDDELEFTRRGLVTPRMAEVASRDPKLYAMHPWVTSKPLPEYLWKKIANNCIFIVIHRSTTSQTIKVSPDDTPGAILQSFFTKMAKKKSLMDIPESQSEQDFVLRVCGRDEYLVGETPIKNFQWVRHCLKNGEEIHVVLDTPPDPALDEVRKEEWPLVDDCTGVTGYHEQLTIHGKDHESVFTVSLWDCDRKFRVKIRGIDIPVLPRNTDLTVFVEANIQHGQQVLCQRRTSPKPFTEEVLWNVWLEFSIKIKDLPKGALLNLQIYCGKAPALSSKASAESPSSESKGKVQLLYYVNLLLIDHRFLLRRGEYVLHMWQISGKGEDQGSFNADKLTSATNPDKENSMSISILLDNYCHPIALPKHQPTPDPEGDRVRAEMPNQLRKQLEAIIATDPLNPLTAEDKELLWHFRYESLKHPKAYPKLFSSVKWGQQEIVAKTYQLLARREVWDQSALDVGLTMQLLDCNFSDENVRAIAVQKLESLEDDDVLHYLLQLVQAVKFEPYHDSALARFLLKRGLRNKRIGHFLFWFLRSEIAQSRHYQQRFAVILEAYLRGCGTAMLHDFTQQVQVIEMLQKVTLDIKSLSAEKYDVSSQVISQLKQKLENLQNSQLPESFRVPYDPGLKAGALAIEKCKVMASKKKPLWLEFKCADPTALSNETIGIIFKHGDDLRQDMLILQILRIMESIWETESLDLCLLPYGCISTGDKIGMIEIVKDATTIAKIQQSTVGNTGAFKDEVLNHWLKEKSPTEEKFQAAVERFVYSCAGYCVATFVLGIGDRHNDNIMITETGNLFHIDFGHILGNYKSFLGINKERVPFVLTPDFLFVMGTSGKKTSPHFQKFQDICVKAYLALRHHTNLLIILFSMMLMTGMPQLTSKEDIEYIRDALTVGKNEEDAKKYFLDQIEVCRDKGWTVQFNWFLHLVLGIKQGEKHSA
T3 sequence (P42338 whole entry, canonical isoform): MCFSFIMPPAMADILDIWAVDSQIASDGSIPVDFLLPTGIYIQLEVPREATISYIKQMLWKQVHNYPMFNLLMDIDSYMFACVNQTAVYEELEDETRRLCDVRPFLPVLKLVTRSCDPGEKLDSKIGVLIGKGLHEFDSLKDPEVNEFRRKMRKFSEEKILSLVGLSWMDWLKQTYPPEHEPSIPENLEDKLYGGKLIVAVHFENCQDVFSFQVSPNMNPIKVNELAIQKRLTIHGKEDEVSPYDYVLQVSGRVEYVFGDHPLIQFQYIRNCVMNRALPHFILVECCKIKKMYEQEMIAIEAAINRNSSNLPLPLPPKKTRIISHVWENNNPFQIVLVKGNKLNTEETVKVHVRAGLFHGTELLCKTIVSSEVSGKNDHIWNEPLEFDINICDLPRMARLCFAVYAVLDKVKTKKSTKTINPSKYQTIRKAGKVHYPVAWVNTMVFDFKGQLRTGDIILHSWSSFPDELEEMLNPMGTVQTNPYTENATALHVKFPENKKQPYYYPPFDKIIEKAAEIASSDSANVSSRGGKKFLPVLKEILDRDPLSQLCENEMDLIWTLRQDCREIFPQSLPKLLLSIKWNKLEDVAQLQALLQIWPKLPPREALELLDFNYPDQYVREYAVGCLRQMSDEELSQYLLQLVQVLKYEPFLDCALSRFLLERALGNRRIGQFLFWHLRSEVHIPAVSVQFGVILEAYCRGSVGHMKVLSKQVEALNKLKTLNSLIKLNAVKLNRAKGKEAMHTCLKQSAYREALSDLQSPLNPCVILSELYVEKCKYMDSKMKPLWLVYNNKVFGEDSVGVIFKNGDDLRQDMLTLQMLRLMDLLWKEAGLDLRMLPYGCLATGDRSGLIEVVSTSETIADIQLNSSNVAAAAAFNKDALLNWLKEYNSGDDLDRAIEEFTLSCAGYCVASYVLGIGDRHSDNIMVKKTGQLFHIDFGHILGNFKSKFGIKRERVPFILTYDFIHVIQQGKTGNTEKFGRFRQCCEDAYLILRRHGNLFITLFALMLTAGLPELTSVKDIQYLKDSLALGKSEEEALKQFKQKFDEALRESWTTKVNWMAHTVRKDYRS

| Compound | IC50 [1] [nM] | IC50 ([2]; read-out: inhibition against PI3Kδ (IC50)) [nM] | IC50 [3] [nM] | IC50 [4] [nM] | IC50 [2] [nM] | mTor kinase inhibition [5] |
| --- | --- | --- | --- | --- | --- | --- |
| CS(=O)(=O)N1CCN(CCn2cnc3c(-n4c(C(F)F)nc5ccccc54)nc(N4CCOCC4)nc32)CC1 [Example 14, 6-(2-difluoromethyl-benzoimidazol-1-yl)-9-[2-(4-methanesulfonyl-piperazin-1-yl)-ethyl]-2-morpholin-4-yl-9H-purine] | > 100 | < 30 | > 100 | > 100 | – | – |
| OCCn1cnc2c(-n3c(C(F)F)nc4ccccc43)nc(N3CCOCC3)nc21 [Example 28, 2-{6-[2-(difluoromethyl)benzimidazol-1-yl]-2-morpholin-4-ylpurin-9-yl}ethan-1-ol] | > 100 | – | > 100 | > 100 | < 30 | did not significantly inhibit |
